Assay results published in ChEMBL document CHEMBL1154779, “Synthesis and adrenolytic activity of 1-(1H-indol-4-yloxy)-3-(2-(2-methoxy phenoxy)ethylamino)propan-2-ol analogs and its enantiomers. Part 2” (Eur J Med Chem, 2009).

Assays:
[1] = system: Rattus norvegicus; assay: Effect on heart rate in anesthetized Wistar rat assessed as QRS complex time at 1 mg/kg, iv after 1 min by electrocardiography; type: functional
[2] = system: Rattus norvegicus; assay: Effect on heart rate in anesthetized Wistar rat assessed as QRS complex time at 1 mg/kg, iv after 5 mins by electrocardiography; type: functional
[3] = system: Rattus norvegicus; assay: Effect on heart rate in anesthetized Wistar rat assessed as QRS complex time at 1 mg/kg, iv after 15 mins by electrocardiography; type: functional
[4] = system: Rattus norvegicus; assay: Effect on heart rate in anesthetized Wistar rat assessed as Q-T intervals time at 1 mg/kg, iv after 1 min by electrocardiography; type: functional
[5] = system: Rattus norvegicus; assay: Effect on heart rate in anesthetized Wistar rat assessed as Q-T intervals time at 1 mg/kg, iv after 15 mins by electrocardiography; type: functional
[6] = system: Rattus norvegicus; assay: Effect on heart rate in anesthetized Wistar rat assessed as heart beats per min at 1 mg/kg, iv after 1 min by electrocardiography; type: functional
[7] = system: Rattus norvegicus; assay: Effect on heart rate in anesthetized Wistar rat assessed as heart beats per min at 1 mg/kg, iv after 15 mins by electrocardiography; type: functional
[8] = system: Rattus norvegicus; assay: Antiarrhythmic activity in Wistar rat assessed as inhibition of adrenaline-induced premature ventricular beats at 1 mg/kg, iv administered 15 mins before adrenaline challenge measured after 15 mins by electrocardiography; type: functional; conditions: Heart
[9] = molecular target: T1, Adrenergic receptor alpha-2 (Rattus norvegicus, UniProt P22086+P19328+P22909); assay: Displacement of [3H]Clonidine from alpha2 adrenergic receptor in Wistar rat cerebral cortex membrane by liquid scintillation counting; type: tissue-based
T1 sequence (P22086 whole entry): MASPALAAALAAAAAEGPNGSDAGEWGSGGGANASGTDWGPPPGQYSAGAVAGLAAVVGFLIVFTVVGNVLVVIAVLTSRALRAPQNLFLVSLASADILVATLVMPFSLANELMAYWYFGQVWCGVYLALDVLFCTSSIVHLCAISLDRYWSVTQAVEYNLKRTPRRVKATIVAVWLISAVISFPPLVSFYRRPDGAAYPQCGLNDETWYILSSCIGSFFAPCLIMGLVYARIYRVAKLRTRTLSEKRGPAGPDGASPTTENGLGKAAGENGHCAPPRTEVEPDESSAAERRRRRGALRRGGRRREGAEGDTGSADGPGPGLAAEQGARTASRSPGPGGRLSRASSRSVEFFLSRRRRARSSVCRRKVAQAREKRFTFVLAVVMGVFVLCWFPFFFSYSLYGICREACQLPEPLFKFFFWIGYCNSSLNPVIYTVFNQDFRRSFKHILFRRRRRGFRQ
T1 sequence (P19328 whole entry): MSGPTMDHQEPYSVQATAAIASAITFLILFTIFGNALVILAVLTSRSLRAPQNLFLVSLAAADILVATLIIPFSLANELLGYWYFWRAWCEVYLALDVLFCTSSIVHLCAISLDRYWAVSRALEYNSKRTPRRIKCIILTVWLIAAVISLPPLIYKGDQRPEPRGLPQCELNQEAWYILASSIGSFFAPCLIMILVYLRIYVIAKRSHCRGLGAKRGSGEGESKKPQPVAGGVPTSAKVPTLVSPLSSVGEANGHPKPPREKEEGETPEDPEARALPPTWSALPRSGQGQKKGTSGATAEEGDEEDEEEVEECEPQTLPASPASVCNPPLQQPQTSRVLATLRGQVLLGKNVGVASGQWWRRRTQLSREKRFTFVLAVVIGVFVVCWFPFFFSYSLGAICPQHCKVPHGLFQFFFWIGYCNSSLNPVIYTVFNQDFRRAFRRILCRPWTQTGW
T1 sequence (P22909 whole entry): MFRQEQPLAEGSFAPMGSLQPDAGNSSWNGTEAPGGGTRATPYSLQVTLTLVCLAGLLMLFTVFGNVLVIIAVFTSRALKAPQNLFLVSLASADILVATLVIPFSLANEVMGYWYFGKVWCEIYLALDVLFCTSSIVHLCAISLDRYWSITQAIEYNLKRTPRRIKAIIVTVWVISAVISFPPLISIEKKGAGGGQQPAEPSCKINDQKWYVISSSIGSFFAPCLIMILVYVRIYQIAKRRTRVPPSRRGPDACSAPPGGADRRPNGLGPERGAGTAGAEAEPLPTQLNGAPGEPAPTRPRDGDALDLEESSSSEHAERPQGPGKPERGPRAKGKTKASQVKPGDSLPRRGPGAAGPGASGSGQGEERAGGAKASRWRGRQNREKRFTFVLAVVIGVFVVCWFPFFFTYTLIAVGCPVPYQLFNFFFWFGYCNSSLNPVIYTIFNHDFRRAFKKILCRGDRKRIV

[10] = Displacement of [3H]CGP12177 from beta-1 adrenergic receptor in Wistar rat cerebral cortex membrane by liquid scintillation counting; type: tissue-based
[11] = system: Rattus norvegicus; assay: Effect on heart rate in anesthetized Wistar rat assessed as P-Q intervals time at 1 mg/kg, iv after 1 min by electrocardiography; type: functional
[12] = system: Rattus norvegicus; assay: Effect on heart rate in anesthetized Wistar rat assessed as P-Q intervals time at 1 mg/kg, iv after 5 mins by electrocardiography; type: functional
[13] = system: Rattus norvegicus; assay: Effect on heart rate in anesthetized Wistar rat assessed as P-Q intervals time at 1 mg/kg, iv after 15 mins by electrocardiography; type: functional

| SMILES | Activity [1] [ms] | Activity [2] [ms] | Activity [3] [ms] | Activity [4] [ms] | Activity [5] [ms] | Activity [6] [bpm] | Activity [7] [bpm] | ED50 [8] [mg/kg] | Ki [9] [nM] | Ki [10] [nM] | Activity [11] [ms] | Activity [12] [ms] | Activity [13] [ms] |
| --- | --- | --- | --- | --- | --- | --- | --- | --- | --- | --- | --- | --- | --- |
| COc1ccccc1OCCNC[C@@H](O)COc1ccc(OC)c2[nH]ccc12 | 22.7 | 23.3 | 24.5 | 89.2 | 81.7 | 267.4 | 255.2 | 0.38 | 108.8 | 531 | 58.5 | 59.7 | 58 |
| COc1ccccc1OCCNC[C@@H](O)COc1c(OC)ccc2[nH]ccc12 | 28 | 28.7 | 28.7 | 106.7 | 113.3 | 395.5 | 387 | 0.16 | 43 | 3400 | 45.3 | 42.7 | 42 |
| COc1ccccc1OCCNCC(O)COc1c(OC)ccc2[nH]ccc12 (racemic) | 31.3 | 27.3 | 26 | 111.4 | 118 | 376.3 | 364.7 | 0.38 | 56.9 | 1600 | 48.7 | 51.3 | 48 |
| COc1ccccc1OCCNC[C@H](O)COc1ccc(OC)c2[nH]ccc12 | 25 | 24.5 | 22.5 | 78.8 | 83 | 292 | 275.9 | 0.53 | 277.2 | 59.3 | 58.5 | 56.7 | 53.3 |
| COc1ccccc1OCCNCC(O)COc1ccc(OC)c2[nH]ccc12 (racemic) | 24.2 | 23 | 22.7 | 87.1 | 79.2 | 297.3 | 300 | 0.45 | 180.8 | 125 | 58.8 | 59.4 | 57.3 |
| COc1ccccc1OCCNC[C@H](O)COc1c(OC)ccc2[nH]ccc12 | 26 | 28.7 | 28 | 107.3 | 118 | 388.1 | 367.6 | 0.3 | 60.9 | 887 | 48.7 | 46 | 46 |
